Data reported in article PMC6727436, “Gummosin, a sesquiterpene coumarin from Ferula assa-foetida is preferentially cytotoxic to human breast and prostate cancer cell lines” (Avicenna Journal of Phytomedicine, 2019).
Converted amounts (≈) assume the structure as drawn.

Experiments:
[1] = test system: NIH human normal fibroblast cell line; assay: alamarBlue (resazurin) cytotoxicity assay, NIH normal cells; format: cell-based; conditions: for IC50: Homo sapiens, Fibroblast, NIH normal cells, 48 hr treatment, alamarBlue, read-out: IC50 (µg/mL)±SD/Cell line NIH
Description: (§1) Human breast adenocarcinoma cell line (MCF-7), human prostate cancer cell line (PC3) and human normal fibroblast cell line (NIH) were obtained from Biotechnology Research Center (Mashhad, Iran) and subsequently grown in RPMI-1640 medium with 10% fetal bovine serum (Gibco, Invitrogen, Paisley, UK), penicillin (100 units/ml) and streptomycin ([…]) as antibiotics. The cell culture was done in a humidified incubator under the atmosphere of 5% CO2 at 37 °C.
(§2) To measure the cytotoxic activity of pure compounds, a non-fluorescent substrate called resazurin (alamarBlue®; BioSource Invitrogen, Paisley, UK) was used in this study. In this study, we used a method that was previously reported by Haaften et al., with some small modifications (van Haaften et al., 2011). Briefly, when the cells were in the exponential phase, 1×10^4 of the three cell lines were seeded in 96-well plates. The cells were incubated for 24 hr in order to adhere to the plastic surface of the bottom of the wells. After 24 hr, the cells were treated with 6.25, 12.5, 25 and 50 µg/mL of each compound from the stock solution of 5 mg/mL in dimethyl sulfoxide (DMSO) via serial solution prepared using RPMI-1640. The amount of DMSO in final culture media was lower than […]. Also, to rule out the effects of DMSO on cells, equal amount of DMSO was added to the untreated groups. After 48 hr, viability of the cells was measured by adding alamarBlue® reagent (10% of tissue culture volume from stock solution of 0.14 mg/mL). The absorbance of the wells was read at 600 nm using a microplate reader. Doxorubicin at concentrations of 0.1, 1 and 5 µg/mL was used as the positive control and the viability was calculated using following formula:
(§3) T=Absorbance of wells with pure compounds at 600 nm after 48 hr of incubation.
(§4) UT=Absorbance of wells with cell but without any compound at 600 nm after 48 hr of incubation.
(§5) B=Absorbance of blank (without cell and compounds) at 600 nm after 48 hr of incubation.
(§6) In this study, all the experiments were done at least in triplicate.

[2] = test system: PC3 human prostate cancer cell line; assay: cells; format: cell-based; conditions: for IC50: Homo sapiens, 48 h, read-out: IC50 (µg/mL)±SD/Cell line PC3; for IC50 / IC50 (µg/mL)±SD/Cell line PC3: PC3, 48 hr treatment, alamarBlue; for cytotoxic activity at highest dose: PC3, highest dose 50 µg/mL
Description: as §1, §2, §3, §4, §5, §6

[3] = test system: MCF-7 human breast adenocarcinoma cell line; assay: cells; format: cell-based; conditions: for IC50: Homo sapiens, MCF7, 48 h, read-out: IC50 (µg/mL)±SD/Cell line MCF-7; for IC50 / IC50 (µg/mL)±SD/Cell line MCF-7: MCF-7, 48 hr treatment, alamarBlue; for cytotoxic activity at highest dose: MCF-7, highest dose 50 µg/mL
Description: as §1, §2, §3, §4, §5, §6

[4] = test system: cancer cell lines; set-up: method as in Kasaian, et al., 2015; conditions: ref Kasaian, et al., 2015; cited from earlier work
[5] = test system: ovarian cancer cell line; set-up: method as in Valiahdi et al., 2013; conditions: ref Valiahdi et al., 2013; read-out: IC50 against ovarian cancer cell line; cited from earlier work
[6] = set-up: method as in Iranshahi, 2018; conditions: cell line not stated; ref Iranshahi, 2018; cited from earlier work

IC50 [2] [µg/mL]	IC50 [3] [µg/mL]	SMILES	IC50 [1] [µg/mL]	other results
< 50	< 50	C=C1CCC2C(C)(C)C(O)CCC2(C)C1COc1ccc2ccc(=O)oc2c1 (centres unmarked) [Gummosin]	> 100	toxicity in normal cell line ([1]; NIH normal cell line, at 50 µg/mL): did not cause any toxicity; IC50 (µg/mL)±SD/Cell line PC3 [2]: 30.0 ± 4.7 µg/mL (≈ 78.4 µM); IC50 (µg/mL)±SD/Cell line MCF-7 [3]: 32.1 ± 2.3 µg/mL (≈ 83.9 µM)
> 50	> 50	C=C1CC[C@@H]2C(C)(C)[C@H](O)CC[C@@]2(C)[C@H]1COc1ccc2ccc(=O)oc2c1 [Farnesiferol A]	> 100	cytotoxic activity at highest dose [2]: did not show cytotoxic activity; cytotoxic activity at highest dose [3]: did not show cytotoxic activity
< 50	< 50	C/C(=C\COc1ccc2ccc(=O)oc2c1)CC[C@@H]1C(C)(C)[C@H]2CC[C@]1(C)O2 [Farnesiferol C]	> 100	IC50 (µg/mL)±SD/Cell line PC3 [2]: 43.1 ± 9.5 µg/mL (≈ 113 µM); IC50 (µg/mL)±SD/Cell line MCF-7 [3]: 41.7 ± 8.2 µg/mL (≈ 109 µM)
		CC1=CC[C@@H]2C(C)(C)[C@H](O)CC[C@@]2(C)[C@@H]1COc1ccc2ccc(=O)oc2c1 [feselol, Feselol]		activity against cancer cell lines [4]: inactive
		CC1=CCC2C(C)(C)C(=O)CCC2(C)C1COc1ccc2ccc(=O)oc2c1 (centres unmarked) [conferone]		IC50 [5]: 7.79 µM
> 50	> 50	CC(C)=CCC/C(C)=C/CC/C(C)=C/COc1ccc2ccc(=O)oc2c1 [Umbelliprenin]	> 100	
> 50	> 50	CC1(C)CC[C@H]2C(C)(C)[C@H](O)CC[C@]2(C)[C@H]1COc1ccc2ccc(=O)oc2c1 [Samarcandin]	> 100	cytotoxic activity at highest dose [2]: unable to induce toxicity; cytotoxic activity at highest dose [3]: unable to induce toxicity
		CC(C)=CCC/C(C)=C/CC/C(C)=C/Cc1c(O)c2ccccc2oc1=O [ferulenol]		IC50 (cytotoxic activity) [6]: 1 µg/mL (≈ 2.73 µM)
0.62 (≈ 1.14 µM)	0.28 (≈ 0.515 µM)	COc1cccc2c1C(=O)c1c(O)c3c(c(O)c1C2=O)C[C@@](O)(C(=O)CO)C[C@@H]3O[C@H]1C[C@H](N)[C@H](O)[C@H](C)O1 [Doxorubicin, reference compound]		
< 50	< 50	C=C1CC[C@@H](O)C(C)(C)C1CC/C(C)=C/COc1ccc2ccc(=O)oc2c1 (some centres unmarked) [Farnesiferol B]	> 100	
